Experimental data from publication PMC8232621, “Antimicrobial Activity of a Library of Thioxanthones and Their Potential as Efflux Pump Inhibitors” (Pharmaceuticals, 2021).
Values joined by “and” are separate entries in the source; they are usually repeats but may differ in a detail not shown here. Identical values can stand only once.

Experiments:
[1] = system: S. aureus 272123; assay: Antibacterial activity, broth microdilution MIC; format: cell-based; details: Staphylococcus aureus, 272123, read-out: Minimum Inhibitory Concentration (MIC)
Text: (§1) The referred library of thioxanthones was initially tested for their antimicrobial activity against six bacterial strains: the Gram-negative Escherichia coli ATCC 25922, Pseudomonas aeruginosa ATCC 27853 and Salmonella enterica serovar Typhimurium SL1344 (SE03), with the acrA gene deleted, and the Gram-positive Staphylococcus aureus ATCC 29213, Enterococcus faecalis ATCC 29212 and the methicillin and ofloxacin-resistant clinical isolate S. aureus 272123. For the synergy assay, two clinically relevant isolates were used: the extended-spectrum β-lactamase (ESBL)-producing E. coli SA/2 [23] and the vancomycin-resistant E. faecalis (VRE) B3/101 [23]. The antibiotics used were cefotaxime (CTX) and vancomycin (VAN), respectively.
(§2) The minimum inhibitory concentration (MIC) for each compound was determined by broth microdilution method in a 96-well plate according to the Clinical and Laboratory Standard Institute (CLSI) guidelines. The medium used was MHB II. The concentrations tested ranged from 100 µM to 0.195 µM and were prepared from a stock solution of 10 mM in DMSO, for S. aureus 272123 and SE03; for the other strains, the concentrations tested ranged from 64 µg/mL to 4 µg/mL and were prepared from a stock solution of 10 mg/mL in DMSO. DMSO was used in subinhibitory concentrations (1% v/v). The MIC was determined by visual inspection.

[2] = system: SE03; assay: Antibacterial activity, broth microdilution MIC; format: cell-based, Salmonella enterica serovar Typhimurium SL1344; details: Salmonella enterica, read-out: Minimum Inhibitory Concentration (MIC)
Text: as §1, §2

[3] = system: S. aureus 272123; assay: Real-time ethidium bromide accumulation assay (efflux pump inhibition); format: cell-based, Staphylococcus aureus; design: key: RFI = (RFtreated − RFuntreated)/RFuntreated at minute 60; details: compounds 50 µM, reserpine 25 µM, minute 60, EB 1 µg/mL
Experimental: (§3) The relative fluorescence index (RFI) was calculated based on the means of relative fluorescence units, and theses RFIs are depicted in Table 4.
(§4) The compounds were evaluated for their ability to inhibit the efflux of EB, an efflux pump substrate, in Salmonella enterica serovar Typhimurium SE03 and S. aureus 272123 strains, through real-time fluorimetry, monitoring the intracellular accumulation of EB, an efflux pump substrate. This was determined by the automated method using a CLARIOstar Plus plate reader (BMG Labtech, Ortenberg, Germany). Reserpine and CCCP were applied at 25 µM as positive controls, and the solvent DMSO was applied at 1% v/v. The bacterial strains were incubated in an appropriate culture media (TSB–S. aureus 272123; LB-B–SE03) at 37 °C until they reached an optical density (OD) of 0.6 at 600 nm. The culture was centrifuged at 13,000× g for 3 min, and the pellet was washed and resuspended with phosphate buffered saline (PBS, pH 7.4). The suspension was centrifuged again in the same conditions and resuspended in PBS.
(§5) Then, 50 µL of this solution were transferred into a 96-well black microtiter plate (Greiner Bio-One Hungary Kft, Mosonmagyaróvár, Fertősor, Hungary), and 50 µL of bacterial suspension (OD600 = 0.6) were added to each well. The plates were placed into the CLARIOstar plate reader, and the fluorescence was monitored at excitation and emission wavelengths of 530 nm and 600 nm, respectively, every minute for one hour on a real-time basis. From the real-time data, the activity of the compounds, namely the relative fluorescence index (RFI) of the last time point (minute 60) of the EB accumulation assay, was calculated according to the following equation:(1) RFI=RFtreated−RFuntreated/RFuntreated where RFtreated is the relative fluorescence (RF) at the last time point of EB accumulation curve in the presence of the compound, and RFuntreated is the RF at the last time point of the EB accumulation curve of the untreated control, having only the solvent (DMSO) control. The accumulation curves were designed using Microsoft Excel®. The samples were tested in triplicate, and the RFI presented comes from the average of these three values. The accumulation graphs present the mean of the RF at the last time point. The standard deviation (SD) was calculated automatically and included in the RF graphs.

[4] = system: SE03; assay: as above; format: cell-based, Salmonella enterica serovar Typhimurium SL1344; details: compounds 50 µM (compound 12 at 17 µM), CCCP 25 µM, minute 60, EB 1 µg/mL
Experimental: as §3, §4, §5

[5] = system: S. aureus ATCC 29213; assay: Inhibition of biofilm formation (crystal violet); format: cell-based; details: Staphylococcus aureus, ATCC29213, 48 h, S. aureus ATCC 29213, compounds 100 µM (compound 12 at 50 µM), read-out: Biofilm Inhibition (%) ± SD
[6] = system: S. aureus 272123; assay: Inhibition of biofilm formation (crystal violet); format: cell-based, Staphylococcus aureus; details: Staphylococcus aureus; S. aureus 272123; compounds 100 µM (compound 12 at 50 µM); 48 h; read-out: Biofilm Inhibition (%) ± SD
Experimental: Efflux mechanisms are one of the factors that can lead to biofilm-mediated resistance, along with slow growth and reduced penetration due to production of extracellular polysaccharides. […] Additionally, they can also modulate QS, through an influence in the transport of QS signal molecules. Thioxanthones 2–18 were tested for their potential for inhibiting biofilm formation by S. aureus ATCC 29213 and the multi-resistant S. aureus 272123. The biofilm inhibition, presented in percentage (%), was calculated based on the mean of absorbance units. Reserpine, which has previously been described as both an efflux pump inhibitor and an inhibitor of biofilm formation in Gram-positive bacteria was used as control in both strains.
The thioxanthone derivatives were tested for their ability to decrease the formation of biofilm. The bacterial strains used were the Gram-positive S. aureus […] and S. aureus 272123. The detection of the biofilm formation was carried out using the dye crystal violet (CV; 0.1% v/v). The initial inoculum was incubated in TSB overnight, and then diluted to an OD600 of 0.1. […] This meant that compound 12 was added at 50 µM, while the rest of the compounds were added at the concentration of 100 µM. The final volume in each well was 200 µL. Reserpine was used as a positive control, as it was the same compound used in the efflux pump inhibition assay and it has shown activity in the inhibition of biofilm formation in S. aureus strains. The plates were incubated at 30 °C for 48 h, with gentle stirring (100 rpm). After this incubation period, the TSB medium was discarded, and the plates were washed with tap water to remove unattached cells. Afterwards, 200 µL of a 0.1% v/v CV solution were added to the wells and incubated for 15 min at room temperature. Then, the CV solution was removed from the wells, and the plates were washed again with tap water, and 200 µL of a 70% ethanol solution was added to the wells. The biofilm formation was determined by measuring the OD600 using a Multiscan EX ELISA plate reader (Thermo Labsystems, Cheshire, WA, USA). The anti-biofilm effect of the compounds was expressed in the percentage (%) of decrease of biofilm formation.

[7] = system: S. marcescens; assay: Quorum sensing inhibition assay (pigment production); format: cell-based, Serratia marcescens AS-1; details: Serratia marcescens, read-out: Quorum Sensing Inhibition (mm) ± SD
Experimental: (§6) Concerning the QS inhibition assay, the sensor strain Chromobacterium violaceum CV026 and the AHL producer strain Sphingomonas paucimobilis Ezf 10-17 (EZF) were inoculated as parallel lines, and the AHL producers Chromobacterium violaceum wild-type 85 (wt85) and Serratia marcescens AS-1 were inoculated as a single line. The interaction between the strains and compounds 2–18 was evaluated as the reduction of pigment production, in millimeters (mm) (Table 5) with promethazine (PMZ) as a positive control.
(§7) The QS inhibitory effect of the compounds was examined on the EZF and the sensor CV026 strains, on the wt85 strain, and on S. marcescens. The method used was the parallel inoculation method, where pair combinations of the used sensor strain CV026 and the N-acyl-homoserine lactone (AHL) producing strain EZF were inoculated directly onto the LB*-A agar surface in parallel, at an approximate distance of 5 mm from each other. S. marcescens AS-1 and wt85 were inoculated as a single line. Filter paper disks (7 mm in diameter) were placed on the center of the inoculated line(s) and impregnated with 8 µL of a solution of 10 mM of the compounds. […] The agar plates were incubated at room temperature (20 °C) for 24−48 h. The QS inhibition was accessed visually, through the inhibition of pigment production. The discolored, but intact, bacterial colonies were measured with a ruler.

[8] = system: wt85; assay: as above; format: cell-based, Chromobacterium violaceum wild-type 85; details: Chromobacterium violaceum, read-out: Quorum Sensing Inhibition (mm) ± SD
Experimental: as §6, §7

[9] = system: EZF + CV026; assay: Quorum sensing inhibition assay (pigment production), parallel inoculation; format: cell-based; details: disk with 8 µL of 10 mM solution, read-out: Quorum Sensing Inhibition (mm) ± SD
Experimental: as §6, §7

[10] = system: E. faecalis B3/101; assay: Synergy with vancomycin (antibiotic MIC in presence of compound); format: cell-based, Enterococcus faecalis
Text: as §1
The combined effect of the compounds and clinically relevant antimicrobial drugs was evaluated by determining the antibiotic’s MIC in the presence of each compound. […] The antibiotic tested was serially diluted, whereas the concentration of each compound was kept fixed. In the case of compound 12, the concentration used was 8 µg/mL. For all other compounds, the concentration used was 64 µg/mL. Antibiotic MICs were determined as described above.

[11] = Cytotoxicity in NIH/3T3 cell line (MTT assay); format: cell-based; details: mouse, NIH/3T3 mouse fibroblast cells, read-out: IC50 (µM) ± SD, cytotoxicity
Experimental: Before each cytotoxicity assay using this cell line, cells were seeded in untreated 96-well flat-bottom microtiter plates, following a 4-hour incubation period in a humidified atmosphere (5% CO2, 95% air) at 37 °C [47]. […] Prior to the assay, the cells were seeded for 4 h using 1 × 10^4 cells/well. […] The plates were incubated for 24 h, after which a solution of MTT in PBS was added to each well and incubated for another 4 h. After this, 100 μL of SDS (10% in a 0.01 M HCl solution) was added to each well and incubated overnight at 37 °C. Doxorubicin was used as a positive control. Cell growth was determined in quadruplicate by measuring OD at λ = 540 nm (reference 630 nm) in a Multiscan EX ELISA reader (Thermo Labsystems, Cheshire, WA, USA). […] (2) 100−ODsample−ODmedium control/ODcell control−ODmedium control×100 […]

[12] = system: E. coli SA/2; assay: Synergy with cefotaxime (antibiotic MIC in presence of compound); format: cell-based
Text: as §1
The combined effect of the compounds and clinically relevant antimicrobial drugs was evaluated by determining the antibiotic’s MIC in the presence of each compound. […] The antibiotic tested was serially diluted, whereas the concentration of each compound was kept fixed. […]

CTX MIC (antibiotic alone) [12]	Compound	MIC [1] [µM]	MIC [2] [µM]	RFI ± SD [3]	RFI ± SD [4]	inhibition at 100 µM [5] [%]	inhibition at 100 µM [6] [%]	zone of inhibition at 10000 µM [7] [mm]	zone of inhibition at 10000 µM [8] [mm]	zone of inhibition at 10000 µM [9] [mm]	VAN MIC (antibiotic alone) [10]	IC50 at 24 h [11] [µM]
	CCCOc1ccc(NCCc2ccc([N+](=O)[O-])cc2)c2c(=O)c3ccccc3sc12 [Compound 6]	> 100	> 100	0.09 ± 0.11	−0.20 ± 0.01	0	0	0	0	0		
	CN[C@H](CC(C)C)C(=O)N[C@H]1C(=O)N[C@@H](CC(N)=O)C(=O)N[C@H]2C(=O)N[C@H]3C(=O)N[C@H](C(=O)N[C@H](C(=O)O)c4cc(O)cc(O)c4-c4cc3ccc4O)[C@H](O)c3ccc(c(Cl)c3)Oc3cc2cc(c3O[C@@H]2O[C@H](CO)[C@@H](O)[C@H](O)[C@H]2O[C@H]2C[C@](C)(N)[C@H](O)[C@H](C)O2)Oc2ccc(cc2Cl)[C@H]1O [VAN, vancomycin]										707 µM and 1024 µg/mL	
	COc1cccc2c1C(=O)c1c(O)c3c(c(O)c1C2=O)C[C@@](O)(C(=O)CO)C[C@@H]3O[C@H]1C[C@H](N)[C@H](O)[C@H](C)O1 [Doxorubicin, doxorubicin, reference compound]											12.1 ± 0.81
	COC(=O)[C@H]1[C@H]2C[C@@H]3c4[nH]c5cc(OC)ccc5c4CCN3C[C@H]2C[C@@H](OC(=O)c2cc(OC)c(OC)c(OC)c2)[C@@H]1OC [Reserpine, reserpine, reference compound]			0.50 ± 0.04		30.4						
	CCCOc1ccc(N2CCN(C(C)=O)CC2)c2c(=O)c3ccccc3sc12 [Compound 7]	> 100	> 100	−0.10 ± 0.02	0.49 ± 0.11	0	47.1 ± 7.54	0	0	30 ± 0.5		
	N#CC(C#N)=NNc1cccc(Cl)c1 [CCCP, carbonyl cyanide 3-chlorophenylhydrazone, reference compound]				0.23 ± 0.04							
	CCCOc1ccc(OC)c2c(=O)c3ccccc3sc12 [Compound 4]	> 100	> 100	0.11 ± 0.26	−0.10 ± 0.05	0.17 ± 0.83	47.9 ± 1.08	0	0	0		
1124 µM and 512 µg/mL	CO/N=C(\C(=O)N[C@@H]1C(=O)N2C(C(=O)O)=C(COC(C)=O)CS[C@H]12)c1csc(N)n1 [CTX, cefotaxime, reference compound]											
	CC(CN1c2ccccc2Sc2ccccc21)N(C)C (stereo not drawn) [PMZ, promethazine, reference compound]							18 ± 0.8	40 ± 0.1	41 ± 0.5		
	CCCOc1ccc(NCCc2nc3ccccc3[nH]2)c2c(=O)c3ccccc3sc12 [Compound 5]	> 100	> 100	−0.13 ± 0.04	−0.20 ± 0.01	0.37 ± 0.47	0	0	0	0		
